Laboratory results: patent publication US9717247B2, “Synergistic fungicidal active combinations” (BAYER CROPSCIENCE AG, priority 2003, dated 2017)

Key:
Alternaria solani = Alternaria solani test (tomato)/protective; format: in vivo; details: protective, 3 days after inoculation
Puccinia recondita = Puccinia recondita test (wheat)/curative; details: application rate 62.5 g/ha, curative, evaluation 8 days after inoculation
Description: Puccinia recondita Test (Wheat)/Curative • Solvent: 50 parts by weight of N,N-dimethylacetamide • Emulsifier: 1 part by weight of alkylaryl polyglycol ether
To test for curative activity, young plants are sprayed with a conidia suspension of Puccinia recondita. The plants remain in an incubation cabinet at 20° C. and 100% relative atmospheric humidity for 48 hours.
The plants are placed in a greenhouse at a temperature of about 20° C. and a relative atmospheric humidity of about 80% to promote the development of rust pustules.
(§1) Evaluation is carried out 8 days after the inoculation.

Pyricularia oryzae = format: cell-based; details: 3 ppm; in vitro, PDB, 3 days of incubation
Pyrenophora teres = Pyrenophora teres test (barley)/curative; details: in Hordeum vulgare, 288 h, read-out: Efficacy in % found
Description: Pyrenophora teres Test (Barley)/Curative • Solvent: 50 parts by weight of N,N-dimethylacetamide • Emulsifier: 1 part by weight of alkylaryl polyglycol ether
To test for curative activity, young plants are sprayed with a conidia suspension of Pyrenophora teres. The plants remain in an incubation cabinet at 20° C. and 100% relative atmospheric humidity for 48 hours.
The plants are placed in a greenhouse at a temperature of about 20° C. and a relative atmospheric humidity of about 80%.
Evaluation is carried out 12 days after the inoculation.

Sphaerotheca fuliginea = Sphaerotheca fuliginea test (cucumber)/protective; format: in vivo; details: protective, 7 days after inoculation; for pest or weed control at 1 g/ha: application rate 1 g/ha; for pest or weed control at 2 g/ha: application rate 2 g/ha
Rhizoctonia solani = Rhizoctonia solani test (in vitro)/microtitre plates; format: cell-based; details: PDB, 5 days of incubation
Description: Rhizoctonia solani Test (In Vitro)/Microtitre Plates The microtest is carried out in microtitre plates using potato dextrose broth (PDB) as liquid test medium. The active compounds are used as technical grade a.i., dissolved in acetone. For inoculation, a mycelium suspension of Rhizoctonia solani is used. After 5 days of incubation in the dark and with shaking (10 Hz) for each filled cavity of the microtitre plates, the light transmittance is determined with the aid of a spectrophotometer.

[1] = system: Erysiphe graminis f.sp. hordei; experiment: Erysiphe test (barley)/protective; format: in vivo; details: application rate 12.5 g/ha, protective, evaluation 6 days after inoculation
Phytophthora infestans = details: in vivo
Plasmopara viticola = Plasmopara viticola test (grapevine)/protective; format: in vivo; details: protective, 6 days after inoculation
Botrytis cinerea [2] = experiment: Botrytis cinerea test (in vitro)/microtitre plates; format: cell-based; details: 3 ppm, PDB, 7 days of incubation
Botrytis cinerea [3] = experiment: Botrytis cinerea test (bean)/protective; details: protective, 2 days after inoculation
Description: After the spray coating has dried on, 2 small pieces of agar colonized by Botrytis cinerea are placed onto each leaf. The inoculated plants are placed in a darkened chamber at about 20° C. and 100% relative atmospheric humidity.
The size of the infected areas on the leaves is evaluated 2 days after the inoculation.

Leptosphaeria nodorum [4] = experiment: Leptosphaeria nodorum test (wheat)/curative; details: application rate 25 g/ha, curative, evaluation 8 days after inoculation
Description: Leptosphaeria nodorum Test (Wheat)/Curative • Solvent: 50 parts by weight of N,N-dimethylacetamide • Emulsifier: 1 part by weight of alkylaryl polyglycol ether
To test for curative activity, young plants are sprayed with a conidia suspension of Leptosphaeria nodorum.
The plants are placed in a greenhouse at a temperature of about 15° C. and a relative atmospheric humidity of about 80%.
as §1

Leptosphaeria nodorum [5] = experiment: Leptosphaeria nodorum test (wheat)/protective; format: in vivo; details: application rate 25 g/ha, protective, evaluation 11 days after inoculation
[6] = system: Erysiphe graminis f.sp. hordei; experiment: Erysiphe test (barley)/curative; format: in vivo; details: application rate 25 g/ha, curative, evaluation 6 days after inoculation
Gibberella zeae = format: cell-based; details: 0.3 ppm; in vitro, PDB, 3 days of incubation
[7] = Podosphaera fuliginea, 168 h, read-out: Efficacy in % found
[8] = Podosphaera fuliginea, 168 h, application rate 10 g/ha, read-out: Efficacy in % found

Molecule: COCC(=O)N(c1c(C)cccc1C)[C@H](C)C(=O)OC [(8-4) metalaxyl-M, metalaxyl-M]
- Efficacy in % found (Alternaria solani; application rate 2 g/ha): 0%

Molecule: N#Cc1c[nH]cc1-c1cccc2c1OC(F)(F)O2 [(16-2) fludioxonil, fludioxonil]
- Efficacy in % found (Puccinia recondita): 0%

Molecule: [O-][n+]1nc(-n2ccnc2)nc2ccc(Cl)cc21 [(14-3) triazoxide, triazoxide]
- Efficacy in % found (Pyricularia oryzae): 3%

Molecule: CCC1(C(=O)NC(C)c2ccc(Cl)cc2)C(C)C1(Cl)Cl (centres unmarked) [(6-7) carpropamid, carpropamid]
- pest or weed control at 125 g/ha (Pyrenophora teres): 14%

Molecule: C[C@H](Nc1c(-c2c(F)cc(F)cc2F)c(Cl)nc2ncnn12)C(F)(F)F [(22-1), 5-chloro-N—[(IS)-2,2,2-trifluoro-1-methylethyl]-6-(2,4,6-trifluorophenyl)[1,2,4]triazolo-[1,5-a]pyrimidine-7-amine]
- pest or weed control at 1 g/ha (Sphaerotheca fuliginea; [7]): 22%

Molecule: Fc1ccc(C2(Cn3cncn3)OC2c2ccccc2Cl)cc1 (centres unmarked) [(3-12) epoxyconazole, epoxiconazole]
- pest or weed control at 125 g/ha (Pyrenophora teres): 57%

Molecule: O=C(Nc1ccccc1)N(Cc1ccc(Cl)cc1)C1CCCC1 [(20-1) pencycuron, pencycuron]
- Efficacy in % found (Rhizoctonia solani; 1 ppm): 54%

Molecule: CO/N=C(/C(=O)OC)c1ccccc1CO/N=C(\C)c1cccc(C(F)(F)F)c1 [(2-4) trifloxystrobin, trifloxystrobin]
- pest or weed control at 1 g/ha (Sphaerotheca fuliginea; [7]): 20%
- Efficacy in % found [1]: 78%

Molecule: O=C(Nc1ccccc1-c1ccc(Cl)cc1)c1cccnc1Cl [(6-2) boscalid, boscalid]
- pest or weed control at 1 g/ha (Sphaerotheca fuliginea; [7]): 10%

Molecule: CC(C)OC(=O)N[C@H](C(=O)N[C@H](C)c1nc2ccc(F)cc2s1)C(C)C [(5-3) benthiavalicarb, benthiavalicarb]
- Efficacy in % found (Phytophthora infestans): 50%

Molecule: propineb [(7-4) propineb]
- Efficacy in % found (Sphaerotheca fuliginea; application rate 5 g/ha): 0%

Molecule: CO/C=C(/C(=O)OC)c1ccccc1Oc1cc(Oc2ccccc2C#N)ncn1 [(2-1) azoxystrobin, azoxystrobin]
- pest or weed control at 4 g/ha (Sphaerotheca fuliginea; Podosphaera fuliginea, 168 h, application rate 4 g/ha, read-out: Efficacy in % found): 50%

Molecule: Cc1cc(C)nc(Nc2ccccc2)n1 [(9-3) pyrimethanil, pyrimethanil]
- pest or weed control at 10 g/ha (Sphaerotheca fuliginea; [8]): 0%

Molecule: CC(C)[C@@H](C)Nc1c(-c2c(F)cc(F)cc2F)c(Cl)nc2ncnn12 [(22-2), 5-chloro-N—[(IR)-1,2-dimethylpropyl]-6-(2,4,6-trifluorophenyl)[1,2,4]triazolo[1,5-a]-pyrimidine-7-amine]
- pest or weed control at 1 g/ha (Sphaerotheca fuliginea; [7]): 22%

Molecule: CCCOC(=O)NCCCN(C)C [(11-2) propamocarb, propamocarb]
- Efficacy in % found (Rhizoctonia solani; 1 ppm): 7%

Molecule: CC(C)(C)C(O)C(Oc1ccc(-c2ccccc2)cc1)n1cncn1 (centres unmarked) [(3-21) bitertanol, bitertanol]
- pest or weed control at 2 g/ha (Sphaerotheca fuliginea; [7]): 20%

Molecule: Cc1ccc(N(SC(F)(Cl)Cl)S(=O)(=O)N(C)C)cc1 [(4-2) tolylfluanid, tolylfluanid]
- pest or weed control at 10 g/ha (Sphaerotheca fuliginea; [8]): 0%

Molecule: CCO[PH](=O)O [(17-1) fosetyl-A1, fosetyl-A1]
- Efficacy in % found (Plasmopara viticola; application rate 500 g/ha): 33%
- Efficacy in % found (Plasmopara viticola; application rate 1000 g/ha): 58%

Molecule: CNC(=O)/C(=N/OC)c1ccccc1Oc1ncnc(Oc2cccc(Cl)c2C)c1F [(2-3), (2E)-2-(2-{[6-(3-chloro-2-methylphenoxy)-5-fluoro-4-pyrimidinyl]oxy}phenyl)-2-(methoxyimino)-N-methylethanamide]
- Efficacy in % found (Alternaria solani; application rate 1 g/ha): 39%
- Efficacy in % found (Alternaria solani; application rate 2 g/ha): 32%

Molecule: COC(=O)N(OC)c1ccccc1COc1ccn(-c2ccc(Cl)cc2)n1 [(2-12) pyraclostrobin, pyraclostrobin]
- Efficacy in % found (Alternaria solani; application rate 2 g/ha): 37%

Molecule: COC(=O)Nc1nc2ccccc2[nH]1 [(10-3) carbendazim, carbendazim]
- Efficacy in % found (Botrytis cinerea [2]): 86%

Molecule: CC(C)NC(=O)N1CC(=O)N(c2cc(Cl)cc(Cl)c2)C1=O [(12-4) iprodione, iprodione]
- pest or weed control at 10 g/ha (Sphaerotheca fuliginea; [8]): 0%
- Efficacy in % found (Botrytis cinerea [3]; application rate 5 g/ha): 13%
- Efficacy in % found (Botrytis cinerea [3]; application rate 10 g/ha): 54%
- Efficacy in % found (Botrytis cinerea [3]; application rate 20 g/ha): 47%

Molecule: N#Cc1c(Cl)c(Cl)c(Cl)c(C#N)c1Cl [(19-2) chlorothalonil, chlorothalonil]
- pest or weed control at 10 g/ha (Sphaerotheca fuliginea; [8]): 0%

Molecule: N#Cc1ccccc1NC(=O)c1snc(Cl)c1Cl [3,4-dichloro-N-(2-cyanophenyl)isothiazole-5-carboxamide]
- pest or weed control at 125 g/ha (Pyrenophora teres): 43%

Molecule: CC(C)(C)C(O)(CCc1ccc(Cl)cc1)Cn1cncn1 (centres unmarked) [(3-17) tebuconazole, tebuconazole]
- pest or weed control at 2 g/ha (Sphaerotheca fuliginea; [7]): 10%
- Efficacy in % found (Leptosphaeria nodorum [4]): 29%
- pest or weed control at 25 g/ha (Pyrenophora teres): 29%

Molecule: Cn1cc(C(=O)Nc2ccc(F)cc2-c2ccc(Cl)c(Cl)c2)c(C(F)F)n1 [(24-1), N-(3′,4′-dichloro-5-fluoro-1,1′-biphenyl-2-yl)-3-(difluoromethyl)-1-methyl-1H-pyrazole-4-carboxamide]
- Efficacy in % found (Rhizoctonia solani; 0.003 ppm): 50%
- Efficacy in % found (Phytophthora infestans): 0%

Molecule: CCCN(CC)CC1COC2(CCC(C(C)(C)C)CC2)O1 (centres unmarked) [(19-10) spiroxamine, spiroxamine]
- pest or weed control at 10 g/ha (Sphaerotheca fuliginea; [8]): 0%
- Efficacy in % found (Puccinia recondita): 0%

Molecule: CCCC1COC(Cn2cncn2)(c2ccc(Cl)cc2Cl)O1 (centres unmarked) [(3-3) propiconazole, propiconazole]
- pest or weed control at 1 g/ha (Sphaerotheca fuliginea; [7]): 37%

Molecule: mancozeb [(7-1) mancozeb]
- Efficacy in % found (Sphaerotheca fuliginea; application rate 10 g/ha): 0%

Molecule: CO/N=C(/C1=NOCCO1)c1ccccc1Oc1ncnc(Oc2ccccc2Cl)c1F [(2-2) fluoxastrobin, fluoxastrobin]
- pest or weed control at 2 g/ha (Sphaerotheca fuliginea; [7]): 37%
- Efficacy in % found (Leptosphaeria nodorum [4]): 29%
- pest or weed control at 25 g/ha (Pyrenophora teres): 0%

Molecule: COC(=O)[C@@H](C)N(C(=O)Cc1ccccc1)c1c(C)cccc1C [(8-5) benalaxyl-M, benalaxyl-M]
- Efficacy in % found (Alternaria solani; application rate 2 g/ha): 0%

Molecule: CC(C)CC(C)c1sccc1NC(=O)c1cn(C)nc1C(F)(F)F (centres unmarked) [(6-14) penthiopyrad, penthiopyrad]
- Efficacy in % found (Puccinia recondita): 44%

Molecule: CO/C=C(/C(=O)OC)c1ccccc1COc1cccc(C(F)(F)F)n1 [(2-11) picoxystrobin, picoxystrobin]
- pest or weed control at 125 g/ha (Pyrenophora teres): 86%

Molecule: CC(C)CC(C)c1ccccc1NC(=O)c1ccccc1C(F)(F)F (centres unmarked) [(1-15), N-[2-(1,3-dimethylbutyl)phenyl]-2-(trifluoromethyl)benzamide]
- Efficacy in % found [1]: 0%
- pest or weed control at 25 g/ha (Pyrenophora teres): 14%

Molecule: CSC1=N[C@@](C)(c2ccccc2)C(=O)N1Nc1ccccc1 [(19-13) fenamidone, fenamidone]
- Efficacy in % found (Phytophthora infestans): 47%

Molecule: OC(Cc1ccccc1Cl)(Cn1nc[nH]c1=S)C1(Cl)CC1 (centres unmarked) [(3-15) prothioconazole, prothioconazole]
- pest or weed control at 1 g/ha (Sphaerotheca fuliginea; [7]): 43%
- Efficacy in % found [1]: 67%
- Efficacy in % found (Leptosphaeria nodorum [5]): 13%
- Efficacy in % found [6]: 22%

Molecule: CC(C)CC(C)c1ccccc1NC(=O)c1ccccc1I (centres unmarked) [(1-13), N-[2-(1,3-dimethylbutyl)phenyl]-2-iodobenzamide]
- Efficacy in % found (Alternaria solani; application rate 2 g/ha): 0%
- pest or weed control at 1 g/ha (Sphaerotheca fuliginea; [7]): 10%
- Efficacy in % found [1]: 0%
- Efficacy in % found (Leptosphaeria nodorum [4]): 0%
- Efficacy in % found (Leptosphaeria nodorum [5]): 13%

Molecule: CCCN(CCOc1c(Cl)cc(Cl)cc1Cl)C(=O)n1ccnc1 [(14-2) prochloraz, prochloraz]
- Efficacy in % found (Puccinia recondita): 0%

Molecule: CC1(C(=O)Nc2ccc(O)c(Cl)c2Cl)CCCCC1 [(6-6) fenhexamid, fenhexamid]
- pest or weed control at 10 g/ha (Sphaerotheca fuliginea; [8]): 0%

Molecule: CO/N=C(/C(=O)OC)c1ccccc1COc1ccccc1C [(2-9) kresoxim-methyl, kresoxim-methyl]
- Efficacy in % found (Puccinia recondita): 0%

Molecule: CSC1=N[C@@](C)(c2ccccc2)C(=O)N1Nc1ccccc1 [(19-3) fenamidone]
- Efficacy in % found (Gibberella zeae): 15%

Molecule: Cc1ccc(C(C)NC(=O)[C@H](NC(=O)OC(C)C)C(C)C)cc1 (some centres unmarked) [(5-1) iprovalicarb, iprovalicarb]
- Efficacy in % found (Phytophthora infestans): 64%

Molecule: Cc1nn(C)c(F)c1C(=O)Nc1ccccc1C(C)CC(C)(C)C (centres unmarked) [(1-8), 5-fluoro-1,3-dimethyl-N-[2-(1,3,3-trimethylbutyl)phenyl]-1H-pyrazole-4-carboxamide]
- Efficacy in % found [1]: 11%
- Efficacy in % found [6]: 0%
- pest or weed control at 25 g/ha (Pyrenophora teres): 14%
